Laboratory results published in patent US7053194B2, “Compositions and methods for p53-mediated repression of gene expression” (Fox Chase Cancer Center, priority 1999, dated 2006).

Columns and labels:
Type in all cases: cell-based, human
[1] = test system: MCF7 breast carcinoma cells; assay: Western analysis of p53 and survivin protein after doxorubicin; conditions: twenty-four hour treatment
Experimental: MCF-7 cells were maintained in RPMI-1640 supplemented with 10% fetal bovine serum and 100 units/ml of penicillin and streptomycin. The human melanoma cell line CaCl, and the derivative clone expressing the HPV E6 gene, were cultured as described (Ahn et al., Oncogene). The human osteosarcoma cell lines Saos-2 and U2-OS (kindly provided by Peter Adams, Fox Chase Cancer Center), the murine p21 knock-out fibroblasts (kindly provided by James Sherley, MIT) and the human lung adenocarcinoma cell line H1299 were cultured in DMEM supplemented with 10% fetal bovine serum and 100 units/ml of penicillin and streptomycin. […] For treatment with ultra-violet light, cells were irradiated with 0–10 J/m2 (as noted) of UV-C with a Spectroline X series ultraviolet lamp, and output was monitored with a traceable UV light meter (Fisher Scientific). For drug treatment, cells were treated with 0.5ug/ml adriamycin (doxorubicin, Sigma), or dilution vehicle alone, for twenty-four hours. p53 induction was monitored by western analysis of 100 ug protein as described (Murphy et al., Genes & Devel. 10:2971–2980, 1996), using 0.1ug/ml DO-1 (Ab-6, Calbiochem) or 421 (Ab-1, Calbiochem.
Western analysis was performed essentially as described (Murphy et al., 1999). […] Protein concentrations were determined using the Bio-Rad Dc Protein Assay (Bio-Rad). […]

A2780 cells = assay: Northern analysis of stathmin mRNA after adriamycin treatment; conditions: A2780, adriamycin, 12 hours, data not shown
Experimental: (§1) Sub-confluent cultures of MCF 7 and A2780 cells were treated with 100 nM trichostatin A (TSA, Sigma)for 2 hours, followed by incubation with 0.5 ug/ml adriamycin (doxorubicin, Sigma) for the indicated timepoints. Va15 cells grown at 39 degrees were treated with 100 nM TSA for two hours, followed by temperature shift to 32 degrees for 12 hours. p53 induction was monitored by western analysis of 100 ug protein as described (Murphy et al., Genes & Devel. 10:2971–2980, 1996), using 0.1ug/ml DO-1 (Ab-6, Calbiochem) or 421 (Ab-1, Calbiochem). MDM2 induction was monitored using the monoclonal antibody 2A10, kindly provided by Arnold Levine (Rockefeller University). For UV treatments, cells were irradiated with 4 J/m2 of UV-C with a Spectroline X series ultraviolet lamp, and output was monitored with a traceable UV light meter (Fisher Scientific). For ALLN treatment, MCF-7 cells were treated with 50 uM ALLN (calpain I inhibitor, Sigma) made in DMSO (dimethyl sulfoxide, Sigma) or with DMSO alone for 2 hours prior to harvesting.
(§2) Total RNA was isolated from cells using CsC1 purification (Murphy et al., Genes & Devel. 10:2971–2980, 1996) or using Trizol, as per the manufacturer (Gibco/BRL). Northern analyses were performed as described (Murphy et al., Genes & Devel. 10:2971–2980, 1996). Probes for Northerns were radio labeled using random primers (Prime-It-II, Stratagene) and α^32P dCTP (NEN). Autoradiographs were quantitated using NIH image software. The average values from three independent experiments were plotted onto bar graphs following normalization to GAPDH.
(§3) To extend these observations, the human tumor derived cell lines MCF7 (breast carcinoma)and A2780 (ovarian carcinoma) were analyzed following treatment with adriamycin to activate the endogenous, wild type p53 protein. Because of difficulties detecting human Map4 message, we analyzed the mRNA levels of stathmin (also called oncoprotein 18). We recently identified stathmin as a p53-repressed gene. A time course of treatment of MCF-7 cells with the DNA-damaging agent adriamycin (doxorubicin, DOX) results in approximately 30% reduction of stathmin RNA levels after 8 hours and 75% reduction after 24 hours. We chose to focus further on the 12 hour timepoint of adriamycin treatment, where 50% repression of stathmin was evident, in order to limit the toxicity sometimes associated with TSA (Yoshida et al., J Biol Chem 265:17174–17179, 1990). […] The results of three independent experiments indicate that the repression of stathmin expression evident after 12 hours of adriamycin treatment is completely abrogated by incubation with TSA. In contrast, neither the post-translational stabilization of p53 by adriamycin (DOX) nor the induction of the p53 response genes mdm2 and p21/waf1 were affected by TSA. […] We have performed identical experiments in A2780 cells (ovarian carcinoma, wt p53).

MCF-7 cells = assay: as above; conditions: MCF-7, adriamycin 0.5 ug/ml
Experimental: as §1, §2, §3

COc1cccc2c1C(=O)c1c(O)c3c(c(O)c1C2=O)C[C@@](O)(C(=O)CO)C[C@@H]3O[C@H]1C[C@H](N)[C@H](O)[C@H](C)O1 [adriamycin, doxorubicin]
decrease of survivin protein levels [1]: 3–4 fold | induction of p53 expression [1]: 4 fold | repression of stathmin expression (A2780 cells): approximately 50% | reduction of stathmin RNA levels (MCF-7 cells; 8 hours): approximately 30% | repression of stathmin (MCF-7 cells; 12 hours): 50% | reduction of stathmin RNA levels (MCF-7 cells; 24 hours): ~75%
